The record followed here is PubChem BioAssay (NCI).

Among the test systems are HCT-116 colon; K-562 leukemia; NCI-H23 lung; OVCAR-5 ovarian; OVCAR-8 ovarian; SK-MEL-5 melanoma; SW-620 colon; TK-10 renal; SR leukemia; NCI/ADR-RES ovarian.
Experiment in all cases: inhibition of tumour cell growth, NCI panel, 48 h

Values joined by “and” are separate entries in the source; they are usually repeats but may differ in a detail not shown here. Equal entries are not always repeated.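 Values below derive from 48-hour exposures of cells grown in 96-well plates, with endpoints linearly interpolated between the two concentrations bracketing the appropriate inhibition level. Abbreviation: GI50, concentration required for 50% inhibition of growth. The concentration for full growth arrest is given as TGI.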

As for `COc1cc(-c2cc(=O)c3cc(C)c(C)c(C(=O)O)c3o2)cc(OC)c1OC`, the TGI in the assay with HCT-116 colon, with K-562 leukemia, in the assay on NCI-H23 lung, in the assay with OVCAR-5 ovarian, with OVCAR-8 ovarian and with SK-MEL-5 melanoma was over 100 µM in each case. Also, the TGI in the assay with SW-620 colon and in the assay with TK-10 renal was over 100 µM in each case.
For the compound `COC12CC(=O)C(C(C)=O)=C(O)C1(C)c1c(OC(C)=O)c(C)c(O)c(C(C)=O)c1O2` (stereo unspecified), the TGI in the assay on HCT-116 colon was over 100 µM; in the assay on K-562 leukemia, over 100 µM; with NCI-H23 lung it was 31.3 µM; in the assay on OVCAR-5 ovarian, over 100 µM; with OVCAR-8 ovarian it was over 100 µM; in the assay on SR leukemia, over 100 µM. Also, the TGI in the assay with SW-620 colon was over 100 µM; in the assay on TK-10 renal it was 69.7 µM.
As for `CC1=C(c2cc(C(=O)Nc3cccc(C(F)(F)F)c3)ncn2)Sc2ccccc2N1`, the TGI in the assay on HCT-116 colon, with K-562 leukemia, with NCI-H23 lung, in the assay with OVCAR-8 ovarian, in the assay on SK-MEL-5 melanoma and in the assay on SR leukemia was over 100 µM each time. Besides, the TGI in the assay with SW-620 colon and in the assay with TK-10 renal was over 100 µM throughout.
On to `O=C(CC(=O)C1CCOC1=O)C(=O)Nc1ccc(Cl)cc1Cl` (stereo unspecified), for which the TGI with HCT-116 colon, with K-562 leukemia, with NCI-H23 lung, in the assay on OVCAR-5 ovarian, in the assay on OVCAR-8 ovarian and in the assay on SK-MEL-5 melanoma was over 100 µM in each case. Further, the TGI in the assay on SW-620 colon and in the assay with TK-10 renal was over 100 µM throughout.
In the case of `O=C(NNC(=O)c1cc(/C=C/c2cccc([N+](=O)[O-])c2)[nH]c(=S)n1)Nc1ccc(Cl)cc1`, the TGI in the assay on HCT-116 colon was 60.9 µM; in the assay on K-562 leukemia, over 100 µM; with NCI-H23 lung, over 100 µM; in the assay on OVCAR-5 ovarian, over 100 µM; with OVCAR-8 ovarian, over 100 µM; in the assay on SK-MEL-5 melanoma it was over 100 µM. Besides, the TGI in the assay with SR leukemia is 9.76 µM; in the assay on TK-10 renal, over 100 µM.
As for `O=C1c2c(O)cc(O)cc2OC(c2ccc(O)cc2O)C1O` (stereo unspecified), the GI50 with HCT-116 colon, with K-562 leukemia, with OVCAR-5 ovarian, in the assay with OVCAR-8 ovarian, in the assay with SK-MEL-5 melanoma and with SW-620 colon was over 100 µM throughout. In addition, the TGI in the assay on HCT-116 colon, in the assay with K-562 leukemia, with NCI-H23 lung, in the assay on OVCAR-5 ovarian, in the assay on OVCAR-8 ovarian and with SK-MEL-5 melanoma was over 100 µM in each case. Also, the TGI with SW-620 colon and with TK-10 renal was over 100 µM in each case.
For `CCC[CH2][Sn]([CH2]CCC)([O]C(=O)C1CCC(=O)N1)[O]C(=O)C1CCC(=O)N1` (stereo unspecified), the GI50 was 0.786 µM in the assay with HCT-116 colon; 0.138 µM in the assay on K-562 leukemia; 0.147 µM with NCI-H23 lung; 2.05 µM with OVCAR-5 ovarian; 0.319 µM with OVCAR-8 ovarian; 0.461 µM in the assay on SK-MEL-5 melanoma. The GI50 is 0.18 µM in the assay on SR leukemia, 0.134 µM with SW-620 colon and 0.24 µM with TK-10 renal. Besides, the TGI in the assay on HCT-116 colon was found to be 2.04 µM; in the assay on K-562 leukemia it was 0.565 µM; in the assay with NCI-H23 lung it was 0.384 µM; with OVCAR-5 ovarian, 3.48 µM; in the assay on OVCAR-8 ovarian it was 1.01 µM; in the assay with SK-MEL-5 melanoma, 1.65 µM. Besides, the TGI in the assay with SR leukemia stood at 0.526 µM; in the assay with SW-620 colon, 0.307 µM; with TK-10 renal, 0.682 µM.
Turning to `Cc1ccc(C)c(NC(=O)CCc2nc(=S)[nH][nH]2)c1`, the TGI with HCT-116 colon, with K-562 leukemia, with NCI-H23 lung, in the assay with OVCAR-5 ovarian, in the assay on OVCAR-8 ovarian and in the assay with SK-MEL-5 melanoma was over 100 µM in each case. For the same compound, the TGI in the assay on SR leukemia is over 100 µM; in the assay with SW-620 colon, 33 µM; in the assay on TK-10 renal it was over 100 µM.
Turning to `O=C1/C(=C/c2ccccc2)CN(C(=O)OCc2ccccc2)C/C1=C\c1ccccc1`, the GI50 in the assay with HCT-116 colon is 0.484 µM; with K-562 leukemia, 1.63 µM; in the assay with OVCAR-8 ovarian, 3.05 µM; in the assay on SK-MEL-5 melanoma, 3.44 µM; in the assay on SW-620 colon it was 1.44 µM. Moreover, the TGI was 1.63 µM and 2.63 µM with HCT-116 colon; 15.4 µM with K-562 leukemia; 32.6 µM in the assay on NCI-H23 lung; 30.8 µM in the assay on OVCAR-5 ovarian; 9.39 µM and 20.3 µM in the assay on OVCAR-8 ovarian; 30.7 µM in the assay with SK-MEL-5 melanoma. Further, the TGI is 12.3 µM in the assay with SR leukemia; 3.72 µM and 15.5 µM in the assay on SW-620 colon; over 46.2 µM with TK-10 renal.
`CC/C(C)=C1\OC(=O)C(C)C(O)C(Cc2cccnc2)NC(=O)C(NC(=O)c2ncccc2O)C(C)OC1=O` (stereo unspecified): the TGI in the assay with HCT-116 colon, in the assay with K-562 leukemia, in the assay on NCI-H23 lung, in the assay on OVCAR-5 ovarian, in the assay with OVCAR-8 ovarian and in the assay on SK-MEL-5 melanoma was over 100 µM throughout. Besides, the TGI in the assay on SR leukemia, in the assay on SW-620 colon and with TK-10 renal was over 100 µM in each case.
For the compound `COc1ccc(-c2c(-c3cc(OC)c4c(c3)OCO4)noc2N)cc1`, the GI50 with HCT-116 colon is 0.0438 µM; with K-562 leukemia, 0.0193 µM; in the assay with NCI-H23 lung it was 0.0329 µM; with OVCAR-5 ovarian it was 0.339 µM; with OVCAR-8 ovarian, 0.0654 µM; in the assay on SK-MEL-5 melanoma, 0.0288 µM. Also, the GI50 in the assay on SR leukemia was under 0.0104 µM; in the assay with SW-620 colon, 0.0289 µM; with TK-10 renal it was 10.4 µM. For the same compound, the TGI in the assay on HCT-116 colon is 19.5 µM; with K-562 leukemia it was over 100 µM; in the assay with NCI-H23 lung it was 20.9 µM; in the assay with OVCAR-5 ovarian it was 99.3 µM; in the assay on OVCAR-8 ovarian it was 22.8 µM; with SK-MEL-5 melanoma, 0.485 µM. In addition, the TGI with SR leukemia is over 36.6 µM; with SW-620 colon, over 100 µM; with TK-10 renal it was 49.7 µM.
Regarding `CCCCC#CC#Cc1cccc(=O)o1`, the GI50 with HCT-116 colon is 14.8 µM; with NCI-H23 lung, 18.4 µM; in the assay on NCI/ADR-RES ovarian it was 17.2 µM; in the assay with OVCAR-5 ovarian, 22.3 µM; in the assay with OVCAR-8 ovarian it was 26.4 µM; in the assay with SW-620 colon it was 18.7 µM. Besides, in the assay on TK-10 renal, the GI50 is 14.3 µM. Also, the TGI with HCT-116 colon came to 28.3 µM; in the assay with NCI-H23 lung, 36.2 µM; in the assay with NCI/ADR-RES ovarian, 37.4 µM; in the assay on OVCAR-5 ovarian it was 46.6 µM; in the assay with OVCAR-8 ovarian, 62.9 µM; with SW-620 colon it was 53.1 µM. The TGI in the assay on TK-10 renal was determined as 28.3 µM.
